The results in this text go back to US5981521A, “Tetrahydroisoquinoline derivatives as LHRH antagonists” (Abbott Laboratories, priority 1998, dated 1999).

Counter-ions that a name gives are not always drawn.

For one test, the target named is T1, LHRH rat pituitary receptor (Rattus norvegicus, UniProt P30969).
T1 construct: from tissue; host or cells: rat pituitary
T1 sequence (P30969 1-327): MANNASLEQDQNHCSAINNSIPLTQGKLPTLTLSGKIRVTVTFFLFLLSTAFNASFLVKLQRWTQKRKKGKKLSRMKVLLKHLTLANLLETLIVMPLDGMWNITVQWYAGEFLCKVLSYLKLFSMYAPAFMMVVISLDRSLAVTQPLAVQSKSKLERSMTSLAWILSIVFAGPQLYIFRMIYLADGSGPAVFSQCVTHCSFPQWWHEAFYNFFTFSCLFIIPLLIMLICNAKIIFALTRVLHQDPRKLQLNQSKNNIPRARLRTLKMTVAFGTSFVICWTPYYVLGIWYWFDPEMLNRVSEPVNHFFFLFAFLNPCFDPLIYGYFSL
Description: LHRH rat pituitary receptor binding. The settings on record: Table 1: compounds of formula (V), by n and R1. How it is done: Representative compounds of the present invention were evaluated in vitro for potency against for LHRH rat pituitary receptor binding [pK, ]. Methods for the assay procedures are 10 described in […] al. J Med. Chem., 32: 2340-2344 (1989). Values of pK, are the negative logarithms of the equilibrium dissociation constant of the particular antagonist test compound for the receptor binding. […] Leuprolide LHRH agonist, disclosed and claimed in U.S. Pat. No. 4,005, 063, has the structure 5-oxo-[…].
What is called Ki is the dissociation constant of the complex between target and ligand, obtained from inhibition or displacement. For `COc1cc2c(cc1OC)C(Cc1ccc(Cl)cc1)N(CCCC(CCCNC(=O)CCc1ccc(F)cc1)(c1ccccc1)c1ccccc1)CC2` (stereo not shown) [Example 18, 7-[N-3-(4-Fluorophenyl)propionyl]amino-1-[N-(1,2,3,4-tetrahydro-1-(4-chlorobenzyl)-6,7-dimethoxyisoguinolinyl)1-4.4-diphenylheptane hydrochloride], the affinity, expressed as Ki, was 38.9 nM.

`COc1ccc(CC2c3cc(OC)c(OC)cc3CCN2CCCC(CCCNC(=O)CCc2ccc(F)cc2)(c2ccccc2)c2ccccc2)cc1` (stereo not shown) [Example 19, 7-[N-3-(4-Fluorophenyl)propionyl]amino-1-[N-(1,2,3,4-tetrahydro-1-(4-methoxybenzyl)-6,7-dimethoxyisoguinolinyl)1-4.4-diphenylheptane hydrochloride] showed a Ki of 5.89 nM.

Regarding `COc1cc2c(cc1OC)C(CCc1ccccc1)N(CCCC(CCCNC(=O)CCc1ccc(F)cc1)(c1ccccc1)c1ccccc1)CC2` (stereo not shown) [Example 20, 7-[N-3-(4-Fluorophenyl)propionyl]amino-1-[N-(1,2,3,4-tetrahydro-1-phenethyl-6,7-dimethoxy - isoguinolinyl)]-4,4-diphenylheptane hydrochloride], the Ki was 25.1 nM.

Take `COc1cc2c(cc1OC)C(Cc1ccc(N)cc1)N(CCCC(CCCNC(=O)CCc1ccc(F)cc1)(c1ccccc1)c1ccccc1)CC2` (stereo not shown) [Example 21, 7-[N-3-(4-Fluorophenol)propionyl]amino-1-F(N-[1,2,3,4-tetrahydro-1-(4-aminobenzyl)-6,7-dimethoxyisoguinolinyl)1-4.4-diphenylheptanedihydrochloride]: the affinity, expressed as Ki, was 0.0724 nM. Regarding `COc1cc2c(cc1OC)C(CN)N(CCCC(CCCNC(=O)CCc1ccc(F)cc1)(c1ccccc1)c1ccccc1)CC2` (stereo not shown) [Example 22, 7-[N-3-(4-Fluorophenyl)propionyl]amino-1-[N-(1,2.3,4-tetrahydro-1-aininomethyl-6,7-dimethoxyisoguinolinyl)1-4.4-diphenylheptanedihydrochloride], the pKI is recorded as 9.24.

For the compound `COc1cc2c(cc1OC)C(CNC(C)C)N(CCCC(CCCNC(=O)CCc1ccc(F)cc1)(c1ccccc1)c1ccccc1)CC2` (stereo not shown) [Example 23, 7-[N-3-(4-Fluorophenyl)propionyll-1-[N-(1,2,3,4-tetrahydro-1-(N-isopropylaminomethyl)-6,7-dimethoxyisoguinolinyl)]-4,4-diphenylheptanedihydrochloride], the pKI is reported as 8.91. Consider `COc1cc2c(cc1OC)C(CCCCN1C(=O)c3ccccc3C1=O)N(CCCC(CCCNC(=O)CCc1ccc(F)cc1)(c1ccccc1)c1ccccc1)CC2` (stereo not shown) [Example 24, 7-[N-3-(4-Fluorophenyl)propionyl]amino-1-[N-F 1,2,3,4-tetrahydro-1-(4-N-phthalimidobutyl)-6,7-dimethoxyisoquinolinyl)]-4,4-diphenylheptane hydrochloride], for which the Ki was 0.407 nM. Same read-out and setting: the same measure for `COc1cc2c(cc1OC)C(CCCCN)N(CCCC(CCCNC(=O)CCc1ccc(F)cc1)(c1ccccc1)c1ccccc1)CC2` (stereo not shown) [Example 25, 7-[N-3-(4-Fluorophenyl)propional]-1-[N-(1,2,3,4-tetrahydro-1-(4-aminobutyl)-6,7-dimethoxyisoquinolinyl)]-4,4-diphenylhentane dihydrochloride]: 0.186 nM; for `COc1cc2c(cc1OC)C(CCCCNC(C)C)N(CCCC(CCCNC(=O)CCc1ccc(F)cc1)(c1ccccc1)c1ccccc1)CC2` (stereo not shown) [Example 26, 7-[N-3-(4-Fluorophenyl)propionyl]-1-[N-(1,2,3,4-tetrahydro-1-(4(N-isopropylaminobutyl)-6,7-dimethoxyisoguinolinyl)1-4.4-diohenylheptanedihydrochloride]: 2.75 nM.

`COc1cc2c(cc1OC)C(CCCCNCC1CC1)N(CCCC(CCCNC(=O)CCc1ccc(F)cc1)(c1ccccc1)c1ccccc1)CC2` (stereo not shown) [Example 27]: the pKI is 10.0. Regarding `COc1cc2c(cc1OC)C(CCCCNC1CCC1)N(CCCC(CCCNC(=O)CCc1ccc(F)cc1)(c1ccccc1)c1ccccc1)CC2` (stereo not shown) [Example 28, 7-[N-3-(4-Fluorophenyl)propionyl]-1-[N-(1,2,3,4-tetrahydro-1-(4-N-(cyclobutylamino)butyl)-6,7-dimethoxyisoquinolinyl)1-4.4-diphenylheptanedihydrochloride], the pKI is on record as 9.60. On the same count and under the same terms, the value for `COc1cc2c(cc1OC)C(CCCCNCC(C)C)N(CCCC(CCCNC(=O)CCc1ccc(F)cc1)(c1ccccc1)c1ccccc1)CC2` (stereo not shown) [Example 29, 7-[N-3-(4-Fluorophenyl)propionyl]-1-[N-(1,2,3,4-tetrahydro-1-[4-(N-isobutylamino)butyll-6,7-dimethoxyisoguinolinyl)1-4.4-diphenylheptanedihydrochloride] was 8.60; that for `COc1cc2c(cc1OC)C(CCCCNCCC(C)C)N(CCCC(CCCNC(=O)CCc1ccc(F)cc1)(c1ccccc1)c1ccccc1)CC2` (stereo not shown) [Example 30, 7-[N-3-(4-Fluorophenyl)propionyl]amino-1-[N-(1,2,3,4-tetrahydro-1-(4-N-isopentylamino)butyll-6,7-dimethoxyisoquinolinyl)1-4.4-diphenylheptanedihydrochloride] was 8.00.

As for `COc1cc2c(cc1OC)C(CCCCNC(C)c1ccccc1)N(CCCC(CCCNC(=O)CCc1ccc(F)cc1)(c1ccccc1)c1ccccc1)CC2` (stereo not drawn) [Example 31, 7-[N-3-(4-Fluorophenyl)prol)ionyl]amino-1-[N-(1,2,3,4-tetrahydro-1-(4-(N-alpha-methylbenzylamino)butyl-6,7-dimethoxyisoguinolinyl)]-4,4-diphenylheptane dihydrochloride], the Ki is 3.98 nM. Still for that read-out and setting: the same measure for `COc1cc2c(cc1OC)C(CCCCN(CC1CC1)CC1CC1)N(CCCC(CCCNC(=O)CCc1ccc(F)cc1)(c1ccccc1)c1ccccc1)CC2` (stereo not shown) [Example 32, 7-[N-3-(4-Fluorophenyl)pronionyl]amino-1-N-(1,2,3,4-tetrahydro-1-(4-N. N-dicycloprovylmethylamino)butyl-6,7-dimethoxyisoguinolinyl)1-4,4-diphenylheptane dihydrochloride]: 0.631 nM. Still for that read-out and setting: the value for `COc1cc2c(cc1OC)C(CCCCNC(C)=O)N(CCCC(CCCNC(=O)CCc1ccc(F)cc1)(c1ccccc1)c1ccccc1)CC2` (stereo not shown) [Example 34, 7-[N-3-(4-FluoroTphenyl)propionyll-1-[N-(1,2,3,4-tetrahydro-1-(4-N-acetylamino)butyl)-6,7-dimethoxyisoguinolinyl)1-4,4-diphenylheptane hydrochloride] was 2.34 nM; that for `COc1cc2c(cc1OC)C(CCCCNC(=O)c1cccnc1)N(CCCC(CCCNC(=O)CCc1ccc(F)cc1)(c1ccccc1)c1ccccc1)CC2` (stereo not shown) [Example 35, 7-[N-3-(4-Fluorophenyl)propionyl]amino-1-[N-(1,2,3,4-tetrahydro-1-(4-N-nicotinylamino)-butyl-6,7-dimethoxyisoguinolinyll-4,4-diphenylheptane hydrochloride] was 2.45 nM.

For the compound `COc1cc2c(cc1OC)C(C1CCC(CN)CC1)N(CCCC(CCCNC(=O)CCc1ccc(F)cc1)(c1ccccc1)c1ccccc1)CC2` (stereo not shown) [Example 37, 7-[N-3-(4-Fluorophenyl)propionyl]-1-[N-(1,2,3,4-tetrahydro-1-(4-aminomethylcyclohexyl)-6,7-dimethoxyisoquinolinyl)1-4.4-diphenylheptanedihydrochloride], the Ki is 3.98 nM. `COc1cc2c(cc1OC)C([C@H]1CC[C@H](CNC(C)C)CC1)N(CCCC(CCCNC(=O)CCc1ccc(F)cc1)(c1ccccc1)c1ccccc1)CC2` (stereo partly shown) [Example 38, 7-[N-3-(4-Fluorophenyl)propionyl]-1-[N-(1,2,3,4-tetrahydro-1-(4-N-(isopropylaminomethyl)cyclohexyl-6,7-dimethoxyisoquinolinyl)1-4.4-diphenylheptanedihydrochloride] gave an inhibitory constant (Ki) of 1.58 nM. Consider `COc1cc2c(cc1OC)C(C)N(CCC(CCCNC(=O)CCc1ccc(F)cc1)(c1ccccc1)c1ccccc1)CC2` (stereo not shown) [Example 44], for which the Ki is 70.8 nM.

Compound `COc1cc2c(cc1OC)C(C)N(CCCCC(CCCNC(=O)CCc1ccc(F)cc1)(c1ccccc1)c1ccccc1)CC2` (stereo not shown) [Example 45] had a Ki of 35.5 nM.

The same test, now with this note: Table 2: compounds of formula (VI), by isoquinolinyl moiety R.
The compound `CC1c2cc(O)c(O)cc2CCN1CCCC(CCCNC(=O)CCc1ccc(F)cc1)(c1ccccc1)c1ccccc1` (stereo not shown) [Example 46, 7-[N-3-(4-Fluorophenyl)propionyl]-1-UN-(1,2,3,4-tetrahydro-1-methyl-6,7-dihydroxyisoguinolinyl)1-4.4-diphenylheptane hydrochloride] showed a Ki of 15.5 nM. Turning to `CC1c2ccccc2CCN1CCCC(CCCNC(=O)CCc1ccc(F)cc1)(c1ccccc1)c1ccccc1` (stereo not shown) [Example 47, 7-[N-3-(4-Fluorophenyl)propionyl]-1-[N-(1,2,3,4-tetrahydro-1-methylisoquinolinyl)1-4.4-diphenylheptane hydrochloride], the affinity corresponds to a Ki of 14.5 nM. Turning to `CC1c2cc3c(cc2CCN1CCCC(CCCNC(=O)CCc1ccc(F)cc1)(c1ccccc1)c1ccccc1)OCO3` (stereo not shown) [Example 48, 7-[N-3-(4-Fluorophenyl)propionyl]-1-[N-(1,2,3,4-tetrahydro-1-methyl-6,7-dioxalane-isoquinolinyl)1-4,4-diphenylheptane hydrochloride], the affinity corresponds to a Ki of 10 nM. In turn, `CC1c2cc3c(cc2CCN1CCCC(CCCNC(=O)CCc1ccc(F)cc1)(c1ccccc1)c1ccccc1)OCCO3` (stereo not shown) [Example 49, 7-[N-3-(4-Fluorophenyl)propionyl]amino-1-[N-(1,2,3,4-tetrahydro-1-methyl-6,7-dioxane-isoguinolinyl)1-4.4-diphenylheotane hydrochloride] returned a pKI of 7.90.
